Assay results from patent publication US12202818B2, “Compounds and methods for CD73 modulation and indications therefor” (Opna Bio SA, priority 2020, dated 2025).

Columns and labels:
[1] = target: T1, Human CD73 (amino acid residues 27-549) (Homo sapiens, UniProt P21589); test: CD73 enzymatic assay (luciferase-based indirect assay, CellTiter-Glo); format: biochemical; details: 0.4 nM CD73, 150 μM AMP, 1 hour at room temperature
T1 construct: Human CD73 (amino acid residues 27-549); His tag (N); made in house; host or cells: E. coli
T1 sequence (P21589 27-549): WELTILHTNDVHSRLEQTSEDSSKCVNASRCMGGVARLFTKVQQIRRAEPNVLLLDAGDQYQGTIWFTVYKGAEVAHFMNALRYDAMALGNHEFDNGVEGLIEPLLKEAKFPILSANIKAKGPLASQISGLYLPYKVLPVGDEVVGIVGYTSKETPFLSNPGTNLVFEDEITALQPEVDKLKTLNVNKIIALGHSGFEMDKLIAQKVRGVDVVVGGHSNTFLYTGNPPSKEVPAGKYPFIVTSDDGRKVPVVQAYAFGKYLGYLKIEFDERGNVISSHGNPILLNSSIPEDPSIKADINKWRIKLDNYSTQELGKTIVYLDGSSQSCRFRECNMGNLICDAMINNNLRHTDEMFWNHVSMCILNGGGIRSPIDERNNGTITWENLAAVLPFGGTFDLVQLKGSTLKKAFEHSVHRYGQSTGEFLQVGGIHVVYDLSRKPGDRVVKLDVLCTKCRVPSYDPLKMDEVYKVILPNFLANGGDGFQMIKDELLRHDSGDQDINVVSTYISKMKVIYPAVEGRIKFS
How it was run: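 Luciferase-coupled readout: AMP left after CD73 turnover suppresses CellTiter-Glo signal (1 μM ATP final, 30 min RT). Reaction beforehand: 150 μM AMP, 0.4 nM E. coli-made His-tagged CD73 residues 27-549, test compound, HEPES pH 7.4 with Tween-20, 1 h RT. % inhibition fitted nonlinearly for IC50.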

human CD73 = target: T2, human CD73 (Homo sapiens, UniProt P21589); test: Inhibitor activity against CD73 in cell based assay (CD73 expressing CHO-K1 cells); details: CHO-K1 cells expressing human CD73, 150 μM AMP, 4 hours of incubation; read-out: CHO-K1 CELL_VARIANT: CD73 IC50
T2 construct: expressed in transfected cells
T2 sequence (P21589 27-549): T1 sequence (P21589 27-549)
How it was run: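 AMP (150 μM) was added alongside 8 titrated compound doses (maximum 10 μM, 1:3 steps) to CHO-K1 cells stably expressing human CD73. After 4 h, supernatant AMP was measured indirectly with CellTiter-Glo 2.0 plus 1 μM ATP (30 min, RT). % inhibition versus high and low controls was fitted nonlinearly for IC50.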

Molecule `Cc1noc(C)c1-c1cc(O[C@H]2CN(c3cnn(CCO)c(=O)c3Cl)C[C@@H]2F)ncc1F` [P-0132, 4-chloro-5-((3S,4S)-3-((4-(3,5-dimethylisoxazol-4-yl)-5-fluoropyridin-2-yl)oxy)-4-fluoropyrrolidin-1-yl)-2-(2-hydroxyethyl)pyridazin-3(2H)-one] has an IC50 [1] of 0.001 to 10 µM and an IC50 (human CD73) of 0.001 to 10 µM.
In the case of `Cc1nn(CC2(F)COC2)c(C)c1-c1cc(F)nc(O[C@@H]2CCN(c3cn[nH]c(=O)c3Cl)C2)c1` [P-0133, (R)-4-chloro-5-(3-((6-fluoro-4-(1-((3-fluorooxetan-3-yl)methyl)-3,5-dimethyl-1H-pyrazol-4-yl)pyridin-2-yl)oxy)pyrrolidin-1-yl)pyridazin-3(2H)-one], the IC50 [1] is reported as 0.001 to 10 µM and the IC50 (human CD73) is reported as 0.001 to 10 µM.
`Cc1noc(C)c1-c1cc(O[C@H]2CN(c3cn[nH]c(=O)c3Cl)C[C@@H]2F)ncc1F` [P-0134, 4-chloro-5-((3S,4S)-3-((4-(3,5-dimethylisoxazol-4-yl)-5-fluoropyridin-2-yl)oxy)-4-fluoropyrrolidin-1-yl)pyridazin-3(2H)-one] was tested, and the IC50 [1] was 0.001 to 10 µM and the IC50 (human CD73) was 0.001 to 10 µM.
`Cc1nn(C)c(C)c1-c1cc(O[C@@H]2CCN(c3cnn(CCO)c(=O)c3Cl)C2)ccn1` [P-0135, (R)-4-chloro-2-(2-hydroxyethyl)-5-(3-((2-(1,3,5-trimethyl-1H-pyrazol-4-yl)pyridin-4-yl)oxy)pyrrolidin-1-yl)pyridazin-3(2H)-one] was tested, and the IC50 [1] was 0.001 to 10 µM and the IC50 (human CD73) was 0.001 to 10 µM.
Molecule `Cc1noc(C)c1-c1cc(O[C@@H]2CCN(c3cnn(CCO)c(=O)c3Cl)C2)ccn1` [P-0136, (R)-4-chloro-5-(3-((2-(3,5-dimethylisoxazol-4-yl)pyridin-4-yl)oxy)pyrrolidin-1-yl)-2-(2-hydroxyethyl)pyridazin-3(2H)-one] has an IC50 [1] of 0.001 to 10 µM and an IC50 (human CD73) of 0.001 to 10 µM.
With `Cc1nn(C)c(C)c1-c1cc(O[C@@H]2CCN(c3cn[nH]c(=O)c3Cl)C2)ccn1` [P-0137, (R)-4-chloro-5-(3-((2-(1,3,5-trimethyl-1H-pyrazol-4-yl)pyridin-4-yl)oxy)pyrrolidin-1-yl)pyridazin-3(2H)-one] the IC50 [1] was 0.001 to 10 µM and the IC50 (human CD73) was 0.001 to 10 µM.
Work on `Cc1noc(C)c1-c1cc(O[C@@H]2CCN(c3cn[nH]c(=O)c3Cl)C2)ccn1` [P-0138, (R)-4-chloro-5-(3-((2-(3,5-dimethylisoxazol-4-yl)pyridin-4-yl)oxy)pyrrolidin-1-yl)pyridazin-3(2H)-one] yielded an IC50 [1] of 0.001 to 10 µM and an IC50 (human CD73) of 0.001 to 10 µM.
`Cc1noc(C)c1-c1cc(O[C@@H]2CCN(c3cnn(CCCO)c(=O)c3Cl)C2)ncn1` [P-0139, (R)-4-chloro-5-(3-((6-(3,5-dimethylisoxazol-4-yl)pyrimidin-4-yl)oxy)pyrrolidin-1-yl)-2-(3-hydroxypropyl)pyridazin-3(2H)-one] was tested, and the IC50 [1] was 0.001 to 10 µM and the IC50 (human CD73) was 0.001 to 10 µM.
Work on `Cc1noc(C)c1-c1cc(O[C@@H]2CCN(c3cnn(CC(O)CO)c(=O)c3Cl)C2)ncn1` (stereo partly drawn) [P-0140, 4-chloro-2-(2,3-dihydroxypropyl)-5-((R)-3-((6-(3,5-dimethylisoxazol-4-yl)pyrimidin-4-yl)oxy)pyrrolidin-1-yl)pyridazin-3(2H)-one] yielded an IC50 [1] of 0.001 to 10 µM and an IC50 (human CD73) of 0.001 to 10 µM.
For `Cc1noc(C)c1-c1cc(O[C@@H]2CCN(c3cnn(CCN)c(=O)c3Cl)C2)ncn1` [P-0141, (R)-2-(2-aminoethyl)-4-chloro-5-(3-((6-(3,5-dimethylisoxazol-4-yl)pyrimidin-4-yl)oxy)pyrrolidin-1-yl)pyridazin-3(2H)-one], the IC50 [1] was 0.001 to 10 µM and the IC50 (human CD73) was 0.001 to 10 µM.
For `Cc1nn(C)c(C)c1-c1ccnc(O[C@H]2CN(c3cnn(CCO)c(=O)c3Cl)C[C@@H]2F)c1` [P-0142, 4-chloro-5-((3S,4S)-3-fluoro-4-((4-(1,3,5-trimethyl-1H-pyrazol-4-yl)pyridin-2-yl)oxy)pyrrolidin-1-yl)-2-(2-hydroxyethyl)pyridazin-3(2H)-one], the IC50 [1] was 0.001 to 10 µM and the IC50 (human CD73) was 0.001 to 10 µM.
`Cc1nn(C)c(C)c1-c1ccnc(O[C@@H]2CCN(c3cnn(CCO)c(=O)c3Cl)C2)c1` [P-0143, (R)-4-chloro-2-(2-hydroxyethyl)-5-(3-((4-(1,3,5-trimethyl-1H-pyrazol-4-yl)pyridin-2-yl)oxy)pyrrolidin-1-yl)pyridazin-3(2H)-one] was tested, and the IC50 [1] was 0.001 to 10 µM and the IC50 (human CD73) was 0.001 to 10 µM.
`Cc1nn(C)c(C)c1-c1cc(O[C@H]2CN(c3cnn(CCO)c(=O)c3Cl)C[C@@H]2F)ncn1` [P-0144, 4-chloro-5-((3S,4S)-3-fluoro-4-((6-(1,3,5-trimethyl-1H-pyrazol-4-yl)pyrimidin-4-yl)oxy)pyrrolidin-1-yl)-2-(2-hydroxyethyl)pyridazin-3(2H)-one] gave an IC50 [1] of 0.001 to 10 µM and an IC50 (human CD73) of 0.001 to 10 µM.
For `Cc1noc(C)c1-c1cc(O[C@H]2CN(c3cnn(CCO)c(=O)c3Cl)C[C@@H]2F)ncn1` [P-0145, 4-chloro-5-((3S,4S)-3-((6-(3,5-dimethylisoxazol-4-yl)pyrimidin-4-yl)oxy)-4-fluoropyrrolidin-1-yl)-2-(2-hydroxyethyl)pyridazin-3(2H)-one], the IC50 [1] was 0.001 to 10 µM and the IC50 (human CD73) was 0.001 to 10 µM.
`Cc1noc(C)c1-c1cc(O[C@@H]2CCN(c3cnn(CCO)c(=O)c3Cl)C2)ncc1F` [P-0146, (R)-4-chloro-5-(3-((4-(3,5-dimethylisoxazol-4-yl)-5-fluoropyridin-2-yl)oxy)pyrrolidin-1-yl)-2-(2-hydroxyethyl)pyridazin-3(2H)-one] was tested, and the IC50 [1] was 0.001 to 10 µM and the IC50 (human CD73) was 0.001 to 10 µM.
`Cc1nn(C)c(C)c1-c1cc(O[C@H]2CN(c3cn[nH]c(=O)c3Cl)C[C@@H]2F)ncn1` [P-0147, 4-chloro-5-((3S,4S)-3-fluoro-4-((6-(1,3,5-trimethyl-1H-pyrazol-4-yl)pyrimidin-4-yl)oxy)pyrrolidin-1-yl)pyridazin-3(2H)-one] gave an IC50 [1] of 0.001 to 10 µM and an IC50 (human CD73) of 0.001 to 10 µM.
For `Cc1noc(C)c1-c1cc(O[C@H]2CN(c3cn[nH]c(=O)c3Cl)C[C@@H]2F)ncn1` [P-0148, 4-chloro-5-((3S,4S)-3-((6-(3,5-dimethylisoxazol-4-yl)pyrimidin-4-yl)oxy)-4-fluoropyrrolidin-1-yl)pyridazin-3(2H)-one], the IC50 [1] was 0.001 to 10 µM and the IC50 (human CD73) was 0.001 to 10 µM.
Work on `Cc1noc(C)c1-c1cc(O[C@@H]2CCN(c3cn[nH]c(=O)c3Cl)C2)ncc1F` [P-0149, (R)-4-chloro-5-(3-((4-(3,5-dimethylisoxazol-4-yl)-5-fluoropyridin-2-yl)oxy)pyrrolidin-1-yl)pyridazin-3(2H)-one] yielded an IC50 [1] of 0.001 to 10 µM and an IC50 (human CD73) of 0.001 to 10 µM.
With `COCc1noc(C)c1-c1ccnc(O[C@@H]2CCN(c3cn[nH]c(=O)c3Cl)C2)c1` [P-0150, (R)-4-chloro-5-(3-((4-(3-(methoxymethyl)-5-methylisoxazol-4-yl)pyridin-2-yl)oxy)pyrrolidin-1-yl)pyridazin-3(2H)-one] the IC50 [1] was 0.001 to 10 µM and the IC50 (human CD73) was 0.001 to 10 µM.
`Cc1c(-c2cc(F)nc(O[C@@H]3CCN(c4cn[nH]c(=O)c4Cl)C3)c2)cnn1CC1(C)COC1` [P-0151, (R)-4-chloro-5-(3-((6-fluoro-4-(5-methyl-1-((3-methyloxetan-3-yl)methyl)-1H-pyrazol-4-yl)pyridin-2-yl)oxy)pyrrolidin-l-yl)pyridazin-3(2H)-one] gave an IC50 [1] of 0.001 to 10 µM and an IC50 (human CD73) of 0.001 to 10 µM.
With `Cc1nn(CC2CC2)c(C)c1-c1cc(F)nc(O[C@@H]2CCN(c3cn[nH]c(=O)c3Cl)C2)c1` [P-0152, (R)-4-chloro-5-(3-((4-(1-(cyclopropylmethyl)-3,5-dimethyl-1H-pyrazol-4-yl)-6-fluoropyridin-2-yl)oxy)pyrrolidin-1-yl)pyridazin-3(2H)-one] the IC50 [1] was 0.001 to 10 µM and the IC50 (human CD73) was 0.001 to 10 µM.
